Experimental data taken from patent publication US10464957B2, “Oxidized lipids and methods of use thereof” (Vascular Biogenics Ltd., priority 2014, dated 2019).

Experiments:
[1] = test system: LPS (TLR4) stimulated Mo-Derived DCs; assay: Cytokine secretion ELISA, LPS (TLR4)-stimulated monocyte-derived dendritic cells; type: cell-based, human; conditions: 1 hour pretreatment, 24 hours 100 ng/ml LPS
Procedure: To generate monocyte-derived DC (Mo-DCs), CD14+ monocytes were counted, washed and seeded (10^6/ml) in medium containing RPMI-1640, L-glutamine, β-mercaptoethanol, 10% fetal calf serum (FCS), sodium pyruvate, non-essential amino acids, 0.01 M HEPES, antibiotics (penicillin, streptomycin), 50 ng/ml human granulocyte-macrophage colony-stimulating factor (GMCSF) and 20 ng/ml human IL-4 (both from PeproTech Asia, Israel). Medium was replaced every 2-3 days. Mo-DCs were collected 5-6 days post-culture, counted and seeded (10^6/ml). Cells were pretreated for 1 hour with VB-201 or VB-703, followed by 24 hours activation with 100 ng/ml LPS from Escherichia coli strain 055:B5 (Sigma, Israel) to induce cytokine production. IL-6 concentration (FIG. 14) and IL-12/23p40 (FIG. 15) concentration in supernatant were measured by ELISA (R&D systems, Cat. No. DY1240 and Cat. No. DY206, […]). Cells activated with solvent (0.5% ethanol in PBS) were used as a control.

TLR4 complex = biological target: T1, TLR4 complex (Homo sapiens, UniProt O00206+Q9Y6Y9); assay: LPS binding inhibition assay (biotin-LPS, FACS)
T1 construct: endogenous in cells; probably the human primary monocytes of b454
T1 sequence (O00206 24-839): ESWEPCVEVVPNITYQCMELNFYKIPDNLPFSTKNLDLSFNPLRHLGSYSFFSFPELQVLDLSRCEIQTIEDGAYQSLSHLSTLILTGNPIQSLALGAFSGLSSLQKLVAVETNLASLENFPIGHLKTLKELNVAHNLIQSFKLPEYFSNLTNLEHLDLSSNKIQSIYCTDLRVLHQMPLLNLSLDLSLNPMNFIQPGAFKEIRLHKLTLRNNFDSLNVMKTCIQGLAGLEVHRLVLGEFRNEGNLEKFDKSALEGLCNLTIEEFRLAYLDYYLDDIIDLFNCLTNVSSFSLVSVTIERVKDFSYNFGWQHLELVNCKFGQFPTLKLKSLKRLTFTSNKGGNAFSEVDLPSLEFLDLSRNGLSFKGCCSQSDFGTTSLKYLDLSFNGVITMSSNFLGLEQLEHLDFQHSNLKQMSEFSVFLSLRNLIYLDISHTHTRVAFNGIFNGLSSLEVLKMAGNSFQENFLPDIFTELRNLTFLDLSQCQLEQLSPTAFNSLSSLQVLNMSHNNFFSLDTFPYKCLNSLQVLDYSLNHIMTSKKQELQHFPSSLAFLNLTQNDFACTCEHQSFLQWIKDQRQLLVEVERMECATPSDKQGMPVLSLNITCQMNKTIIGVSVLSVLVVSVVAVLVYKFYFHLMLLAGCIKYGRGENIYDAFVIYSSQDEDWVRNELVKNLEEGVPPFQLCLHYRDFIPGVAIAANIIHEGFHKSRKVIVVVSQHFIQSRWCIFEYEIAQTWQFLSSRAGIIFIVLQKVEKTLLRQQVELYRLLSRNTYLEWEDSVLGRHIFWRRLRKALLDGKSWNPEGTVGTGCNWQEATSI
T1 sequence (Q9Y6Y9 17-160 limits assumed): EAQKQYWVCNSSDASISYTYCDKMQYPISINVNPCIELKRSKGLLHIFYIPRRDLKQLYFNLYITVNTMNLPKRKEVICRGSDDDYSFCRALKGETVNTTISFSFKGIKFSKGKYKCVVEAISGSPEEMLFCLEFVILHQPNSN
Procedure: To assess interference with lipopolysaccharide (LPS) binding, VB-201 or VB-703 were incubated for 20 min with cells (10^6/ml) after which 100 ng/ml of biotin-LPS (InvivoGen) was added for an additional 15 minutes, all at 4° C. Cells were washed, resuspended in FACS buffer and analyzed on a FACS-Calibur device.

[2] = test system: LPS (TLR4)-induced signaling in human monocytes (primary CD14+); assay: LPS (TLR4)-induced signaling, western blot; type: cell-based; conditions: for formation of p-IKK, p-ERK and p-p38 induced by LPS: 20 min pretreatment, 15 min activation with 100 ng/ml LPS
Procedure: Venous blood samples were obtained from healthy male donors in compliance with the Institutional Review Board at the Sheba Medical Center, Ramat Gan, Israel. PBMCs were isolated on Ficoll-Paque PLUS (GE Healthcare, Uppsala, Sweden) using 50 ml Leucosep tubes (Greiner Bio-One, Frickenhausen, Germany). Cells were washed in PBS (Kibbutz Beit Haemek, Israel) and incubated at 4° C. for 15 minutes in a buffer containing PBS and 0.5% bovine serum albumin (BSA) with human CD14 microbeads (Miltenyi Biotec, Bergisch Gladbach, Germany).
(§1) Cells (10^6/ml) were pretreated for 20 min with VB-201 (1-hexadecyl-2-(4′-carboxy)butyl-glycero-3-phosphocholine or 1-hexadecyl-2-(4′-carboxybutyl)-glycerol-3-phosphocholine) or VB-701 at the doses indicated in FIG. 2, or with solvent (Sol), followed by 15 min activation with 100 ng/ml lipopolysaccharide (LPS) or were untreated (Unt). Cells were washed and resuspended in lysis buffer containing 1:100 dithiothreitol (DTT), phosphatase and protease inhibitors (Thermo Scientific). Samples were loaded onto a precast Criterion TGX gel (Bio-Rad, Hemel Hempstead, UK) and transferred onto nitrocellulose membrane. Blots were blocked with 5% milk or BSA in Tris buffered saline and Tween 20 (TBST) for 1 h, followed by incubation with primary and secondary antibodies. Membranes were developed using an ECL kit (Thermo Scientific). The following antibodies were used for immunoblotting:
(§2) Primary antibodies: p-p38 (Cat. No. 4511; 1:1000) and p-IKK (Cat. No. 2697; 1:1000) were from Cell Signaling Technology (Danvers, Mass., USA). p-ERK1/2 (Cat. No. M8159; 1:10000) was purchased from Sigma (Israel). αTubulin (Tub) served as a loading control.
(§3) Secondary antibodies: HRP donkey anti-rabbit (1:5000) and HRP goat anti-mouse (1:3000) were from Jackson ImmunoResearch (West Grove, Pa., USA). HRP donkey anti-goat (1:5000) was from Santa Cruz Biotechnology.
as §1, with “VB-201” for “VB-201 (1-hexadecyl-2-(4′-carboxy)butyl-glycero-3-phosphocholine”, “VB-703” for “1-hexadecyl-2-(4′-carboxybutyl)-glycerol-3-phosphocholine) or VB-701 at the doses indicated in FIG. 2, or with solvent (Sol),”, “LPS.” for “lipopolysaccharide (LPS) or were untreated (Unt).”
as §2, with “Heat shock protein (HSP) 90 (Cat. No. 13119; 1:500) was from Santa Cruz Biotechnology (Santa Cruz, Calif., USA).” for “αTubulin (Tub) served as a loading control.”

[3] = test system: PGN (TLR2)-induced signaling in human monocytes (THP-1 cell line); assay: PGN (TLR2)-induced signaling, western blot; type: cell-based; conditions: 20 min pretreatment, 20 μg/ml PGN for 15 minutes
Procedure: The monocytic THP-1 cell line was purchased from the American Type Tissue Culture Collection (ATCC Cat. No. TIB-202). Cells (10^6/ml) were pretreated for 20 min with VB-201 or VB-701 at the doses indicated in FIG. 3, or with solvent, followed by activation with 20 μg/ml peptidoglycan (PGN) (InvivoGen, San Diego, Calif.) for 15 minutes, or were untreated (“Unt”). Cells were washed and resuspended in lysis buffer containing 1:100 dithiothreitol (DTT), phosphatase and protease inhibitors (Thermo Scientific). Samples were loaded onto a precast Criterion TGX gel (Bio-Rad, Hemel Hempstead, UK) and transferred onto nitrocellulose membrane. Blots were blocked with 5% milk or BSA in Tris buffered saline and Tween 20 (TBST) for 1 h, followed by incubation with primary and secondary antibodies. Membranes were developed using an ECL kit (Thermo Scientific). The following antibodies were used for immunoblotting:
Primary antibodies: p-p38 (Cat. No. 4511; 1:1000) and p-IKK (Cat. No. 2697; 1:1000) were from Cell Signaling Technology (Danvers, Mass., USA). p-ERK1/2 (Cat. No. M8159; 1:10000) was purchased from Sigma (Israel). αTubulin served as a loading control.
as §3

With `CCCCCCCCCCC(CCCCCCCC)COC[C@H](COP(=O)([O-])OCC[n+]1ccccc1)OCCCCC(=O)O` (stereo partly drawn) [VB-703, (R)-1-(2′-octyl)dodecyl-2-(4′-carboxy)butyl-sn-glycero-3-phosphoric acid pyridiniumethyl ester] the IL-6 secretion [1] was “inhibit”, the IL-12p40 secretion [1] was “inhibit” and the “LPS-biotin binding to human monocytes (primary CD14+)” value (TLR4 complex; biotin-LPS 100 ng/ml, FACS) was “inhibit”. The “IC50 of LPS binding, fold lower than that of VB-201” value (TLR4 complex; compared with VB-201) was > 10 fold, the “formation of p-IKK, p-ERK and p-p38 induced by LPS” value ([2]; western blot) was “inhibited” and the “efficacy in inhibiting TLR4-driven protein phosphorylation, fold higher than VB-201” value ([2]; compared with VB-201) was ≥ 10 fold. The “formation of p-IKK, p-ERK and p-p38 induced by PGN” value [3] was “inhibit”.
With `CCCCCCCCCCCCCCCCOCC(COP(=O)([O-])OCC[N+](C)(C)C)OCCCCC(=O)O` (stereo not shown) [VB-201, 1-hexadecyl-2-(4′-carboxy)butyl-glycero-3-phosphocholine, reference compound] the IL-6 secretion [1] was “inhibit”, the IL-12p40 secretion [1] was “inhibit” and the IC50 (TLR4 complex; biotin-LPS 100 ng/ml, 4° C., human primary monocytes) was ~12 µM. The “formation of p-IKK, p-ERK and p-p38 induced by LPS” value ([2]; western blot) was “inhibit”, the “formation of p-ERK and p-AKT induced by LPS” value ([2]; western blot, LPS activation) was “inhibit” and the “formation of p-IKK, p-ERK and p-p38 induced by PGN” value [3] was “inhibit”.
